System: compound-treated mice
Test: Neuropharmacological assay (SmartCube): behavioral activity signature and minimal effective dose
Type: in vivo
Details: Mus musculus, ip, MED = dose having 50% or more total activity, read-out: Potency: minimal effective dose (MED), binned
Source text: Neurosci. 2011 Sep. 9; 5:103 (doi: 10.3389/fnins.2011.00103) (“Roberds”). As reported in Roberds, because psychiatric diseases generally result from disorders of cell-cell communication or circuitry, intact systems are useful in detecting improvement in disease-relevant endpoints. These endpoints are typically behavioral in nature, often requiring human observation and interpretation. To facilitate testing of multiple compounds for behavioral effects relevant to psychiatric disease, PsychoGenics, Inc. (Tarrytown, N.Y., “PGI”) developed SmartCube™, an automated system in which behaviors of compound-treated mice are captured by digital video and analyzed with computer algorithms. (D. Brunner et al., Drug Discov. Today 2002, 7:S107-S112). PGI Analytical Systems uses data from SmartCube™ to compare the behavioral signature of a test compound to a database of behavioral signatures obtained using a large set of diverse reference compounds. (The composition of the database as well as validation of the method is further described in Roberds). In this way, the neuropharmacological effects of a test compound can be predicted by similarity to major classes of compounds, such as antipsychotics, anxiolytics and antidepressants.
The SmartCube™ system produces an activity signature indicating the probability that the activity of the test compound at the administered dose matches a given class of neuropharmacological agents. (See, e.g., Roberds, FIGS. 2 and 3). The test compound is simultaneously compared against multiple classes of agents; thus, a separate probability is generated for each behavioral effect measured (e.g., anxiolytic activity, analgesic activity, etc.). In the table below, these probabilities are reported for each behavioral effect measured as follows:
where LOQ is the limit of quantification.
Provided compounds were dissolved in a mixture of Pharmasolve™ (N-methyl-2-pyrrolidone), polyethylene glycol and propylene glycol, and were injected i.p. 15 min. before the behavioral test. For each compound, injections were administered at 3 different doses. For each behavioral effect measured, results for the most efficacious dose(s) are presented. In the table below, DP: anti-depressant; AX: anxiolytic; SD: sedative hypnotic; PS: anti-psychotic; MS: mood stabilizer; AD: ADHD; CE: cognitive enhancer; AG: analgesic; UN: uncharacterized CNS activity.
The potency of many of the compounds in the table was also determined in the SmartCube™ system. Test compounds were routinely examined at dose levels of 0.3, 1, 3, 10 and 30 mg per kg (mpk), although the dose range was increased or decreased if necessary to obtain a full dose response curve. A compound's minimal effective dose (MED) is a measure of the compounds potency. The MED was defined as the dose (in mpk) having 50% or more total activity in SmartCube.

SMILES | minimal effective dose [mg/kg]
Cc1ccc(C)c2c1COC[C@@H]2N (single isomer, unassigned) [Example 166] | 3 to 10
Cc1cccc2c1[C@H](N)[C@@H](C)OC2 (single isomer, unassigned) [Example 167] | < 3
Cc1cccc2c1[C@@H](N)[C@H](C)OC2 (single isomer, unassigned) [Example 168] | 3 to 10
Cc1cccc2c1[C@H](N)[C@H](C)OC2 (single isomer, unassigned) [Example 169] | < 3
COc1ccc2c(c1)[C@H](N)[C@@H](C)OC2 (single isomer, unassigned) [Example 171] | < 3
COc1ccc2c(c1)[C@@H](N)[C@H](C)OC2 (single isomer, unassigned) [Example 172] | 10 to 30
COc1ccc2c(c1)[C@H](N)[C@H](C)OC2 (single isomer, unassigned) [Example 173] | 3 to 10
COc1ccc2c(c1)[C@@H](N)[C@@H](C)OC2 (single isomer, unassigned) [Example 174] | 3 to 10
Cc1ccc(Cl)c2c1[C@H](N)COC2 (single isomer, unassigned) [Example 175] | < 3
Cc1ccc(Cl)c2c1[C@@H](N)COC2 (single isomer, unassigned) [Example 176] | 3 to 10
CC[C@H]1OCc2ccc(C)cc2[C@@H]1N (single isomer, unassigned) [Example 177] | < 3
CC[C@@H]1OCc2ccc(C)cc2[C@H]1N (single isomer, unassigned) [Example 178] | 10 to 30

Same assay, conditions: i.p. 15 min before test, most efficacious dose(s)

SMILES | AD: ADHD (probability of activity signature) | AG: analgesic (probability of activity signature) | AX: anxiolytic (probability of activity signature) | CE: cognitive enhancer (probability of activity signature) | DP: anti-depressant (probability of activity signature) | MS: mood stabilizer (probability of activity signature) | PS: anti-psychotic (probability of activity signature) | SD: sedative hypnotic (probability of activity signature) | UN: uncharacterized CNS activity (probability of activity signature)
Cc1ccc(C)c2c1COC[C@@H]2N (single isomer, unassigned) [Example 166] | + (LOQ ≤ + <5%) | + (LOQ ≤ + <5%) | ++ (5% ≤ ++ <25%) | ++ (5% ≤ ++ <25%) | + (LOQ ≤ + <5%) | + (LOQ ≤ + <5%) | ++ (5% ≤ ++ <25%) | ++ (5% ≤ ++ <25%) | ++++ (50% ≤ ++++)
Cc1cccc2c1[C@H](N)[C@@H](C)OC2 (single isomer, unassigned) [Example 167] | + (LOQ ≤ + <5%) | ++ (5% ≤ ++ <25%) | ++ (5% ≤ ++ <25%) | + (LOQ ≤ + <5%) | + (LOQ ≤ + <5%) | + (LOQ ≤ + <5%) | ++ (5% ≤ ++ <25%) | + (LOQ ≤ + <5%) | ++++ (50% ≤ ++++)
Cc1cccc2c1[C@@H](N)[C@H](C)OC2 (single isomer, unassigned) [Example 168] | + (LOQ ≤ + <5%) | + (LOQ ≤ + <5%) | ++ (5% ≤ ++ <25%) | ++ (5% ≤ ++ <25%) | ++ (5% ≤ ++ <25%) | + (LOQ ≤ + <5%) | +++ (25% ≤ +++ <50%) | + (LOQ ≤ + <5%) | ++++ (50% ≤ ++++)
Cc1cccc2c1[C@H](N)[C@H](C)OC2 (single isomer, unassigned) [Example 169] | + (LOQ ≤ + <5%) | ++ (5% ≤ ++ <25%) | ++ (5% ≤ ++ <25%) | ++ (5% ≤ ++ <25%) | ++ (5% ≤ ++ <25%) | + (LOQ ≤ + <5%) | ++ (5% ≤ ++ <25%) | ++ (5% ≤ ++ <25%) | ++++ (50% ≤ ++++)
COc1ccc2c(c1)[C@H](N)[C@@H](C)OC2 (single isomer, unassigned) [Example 171] | + (LOQ ≤ + <5%) | ++ (5% ≤ ++ <25%) | +++ (25% ≤ +++ <50%) | ++ (5% ≤ ++ <25%) | ++ (5% ≤ ++ <25%) | + (LOQ ≤ + <5%) | ++ (5% ≤ ++ <25%) | ++ (5% ≤ ++ <25%) | +++ (25% ≤ +++ <50%)
COc1ccc2c(c1)[C@@H](N)[C@H](C)OC2 (single isomer, unassigned) [Example 172] | + (LOQ ≤ + <5%) | ++ (5% ≤ ++ <25%) | ++ (5% ≤ ++ <25%) | + (LOQ ≤ + <5%) | + (LOQ ≤ + <5%) | + (LOQ ≤ + <5%) | ++ (5% ≤ ++ <25%) | + (LOQ ≤ + <5%) | +++ (25% ≤ +++ <50%)
COc1ccc2c(c1)[C@H](N)[C@H](C)OC2 (single isomer, unassigned) [Example 173] | + (LOQ ≤ + <5%) | ++ (5% ≤ ++ <25%) | ++ (5% ≤ ++ <25%) | ++ (5% ≤ ++ <25%) | + (LOQ ≤ + <5%) | + (LOQ ≤ + <5%) | + (LOQ ≤ + <5%) | + (LOQ ≤ + <5%) | ++++ (50% ≤ ++++)
COc1ccc2c(c1)[C@@H](N)[C@@H](C)OC2 (single isomer, unassigned) [Example 174] | + (LOQ ≤ + <5%) | ++ (5% ≤ ++ <25%) | ++ (5% ≤ ++ <25%) | ++ (5% ≤ ++ <25%) | ++ (5% ≤ ++ <25%) | + (LOQ ≤ + <5%) | ++ (5% ≤ ++ <25%) | + (LOQ ≤ + <5%) | ++++ (50% ≤ ++++)
Cc1ccc(Cl)c2c1[C@H](N)COC2 (single isomer, unassigned) [Example 175] | + (LOQ ≤ + <5%) | ++ (5% ≤ ++ <25%) | ++ (5% ≤ ++ <25%) | ++ (5% ≤ ++ <25%) | ++ (5% ≤ ++ <25%) | + (LOQ ≤ + <5%) | ++ (5% ≤ ++ <25%) | + (LOQ ≤ + <5%) | ++++ (50% ≤ ++++)
Cc1ccc(Cl)c2c1[C@@H](N)COC2 (single isomer, unassigned) [Example 176] | + (LOQ ≤ + <5%) | + (LOQ ≤ + <5%) | ++ (5% ≤ ++ <25%) | ++ (5% ≤ ++ <25%) | ++ (5% ≤ ++ <25%) | + (LOQ ≤ + <5%) | ++ (5% ≤ ++ <25%) | + (LOQ ≤ + <5%) | ++++ (50% ≤ ++++)
CC[C@H]1OCc2ccc(C)cc2[C@@H]1N (single isomer, unassigned) [Example 177] | + (LOQ ≤ + <5%) | ++ (5% ≤ ++ <25%) | ++++ (50% ≤ ++++) | ++ (5% ≤ ++ <25%) | + (LOQ ≤ + <5%) | + (LOQ ≤ + <5%) | ++ (5% ≤ ++ <25%) | + (LOQ ≤ + <5%) | ++++ (50% ≤ ++++)
CC[C@@H]1OCc2ccc(C)cc2[C@H]1N (single isomer, unassigned) [Example 178] | + (LOQ ≤ + <5%) | ++ (5% ≤ ++ <25%) | ++ (5% ≤ ++ <25%) | + (LOQ ≤ + <5%) | ++ (5% ≤ ++ <25%) | + (LOQ ≤ + <5%) | ++ (5% ≤ ++ <25%) | ++ (5% ≤ ++ <25%) | +++ (25% ≤ +++ <50%)
